Test results taken from the kinase profiling compilation of Christmann-Franck et al. (2016).

What was measured:
Experiment in all cases: radiometric filter-binding kinase assay
[1] = molecular target: MARK4 (human) (UniProt Q96L34)
[2] = molecular target: CDK2 CCNA2 (human) (UniProt P20248+P24941)
[3] = molecular target: STK3 (human) (UniProt Q13188)
[4] = molecular target: DAPK1 (human) (UniProt P53355)
[5] = molecular target: TTK (human) (UniProt P33981)
[6] = molecular target: PKN2 (human) (UniProt Q16513)
[7] = molecular target: MAPK9 (human) (UniProt P45984)
[8] = molecular target: EPHA4 (human) (UniProt P54764)
[9] = molecular target: IKBKB (human) (UniProt O14920)
[10] = molecular target: MKNK2 (human) (UniProt Q9HBH9)
[11] = molecular target: MARK3 (human) (UniProt P27448)
[12] = molecular target: RPS6KA5 KD1 KD2 (human) (UniProt O75582)
[13] = molecular target: PIM1 (human) (UniProt P11309)
Chain of PIM1 (human) (P11309 whole entry, looked up): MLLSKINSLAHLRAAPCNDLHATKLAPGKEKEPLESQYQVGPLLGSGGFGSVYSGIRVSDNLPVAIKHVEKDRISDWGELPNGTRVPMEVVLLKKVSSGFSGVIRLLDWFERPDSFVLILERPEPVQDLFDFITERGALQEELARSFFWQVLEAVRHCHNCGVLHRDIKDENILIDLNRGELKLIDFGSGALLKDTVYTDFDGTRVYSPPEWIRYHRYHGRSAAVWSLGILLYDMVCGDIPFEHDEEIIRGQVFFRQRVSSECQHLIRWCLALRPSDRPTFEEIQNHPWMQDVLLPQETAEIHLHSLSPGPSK

[14] = molecular target: EPHB4 (human) (UniProt P54760)
[15] = molecular target: YES1 (human) (UniProt P07947)
[16] = molecular target: EPHB1 (human) (UniProt P54762)
[17] = system: RPS6KB1 (human), P23443 [T412E]
[18] = molecular target: MAP2K2 (human) (UniProt P36507)
[19] = system: PAK2 (human), Q13177 [T402E]
[20] = molecular target: PAK6 (human) (UniProt Q9NQU5)
[21] = molecular target: INSRR (human) (UniProt P14616)
[22] = molecular target: BTK (human) (UniProt Q06187)
Chain of BTK (human) (Q06187 whole entry, looked up): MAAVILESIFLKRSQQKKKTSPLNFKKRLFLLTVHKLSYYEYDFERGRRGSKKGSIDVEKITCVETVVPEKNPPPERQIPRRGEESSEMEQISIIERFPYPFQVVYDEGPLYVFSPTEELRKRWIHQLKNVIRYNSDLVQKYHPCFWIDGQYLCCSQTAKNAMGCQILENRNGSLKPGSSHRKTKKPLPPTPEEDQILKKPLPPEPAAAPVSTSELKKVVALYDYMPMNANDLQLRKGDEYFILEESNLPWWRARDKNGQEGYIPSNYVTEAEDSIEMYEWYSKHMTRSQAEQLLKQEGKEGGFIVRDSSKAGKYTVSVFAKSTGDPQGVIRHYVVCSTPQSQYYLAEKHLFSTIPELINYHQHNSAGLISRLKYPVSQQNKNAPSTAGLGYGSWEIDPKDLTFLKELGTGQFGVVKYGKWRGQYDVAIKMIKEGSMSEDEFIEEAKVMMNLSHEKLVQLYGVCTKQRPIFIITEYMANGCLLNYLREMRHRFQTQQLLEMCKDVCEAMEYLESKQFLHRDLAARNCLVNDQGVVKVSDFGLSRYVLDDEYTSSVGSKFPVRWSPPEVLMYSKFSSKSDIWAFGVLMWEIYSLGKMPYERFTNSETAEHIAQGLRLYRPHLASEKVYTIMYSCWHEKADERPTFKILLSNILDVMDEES

[23] = molecular target: CSNK2A1 (human) (UniProt P68400)
[24] = molecular target: GCK (human) (UniProt Q12851)
[25] = molecular target: MAP3K9 (human) (UniProt P80192)
[26] = molecular target: EEF2K (human) (UniProt O00418)
[27] = molecular target: PIM3 (human) (UniProt Q86V86)
[28] = molecular target: MAP3K5 (human) (UniProt Q99683)
[29] = molecular target: PIM2 (human) (UniProt Q9P1W9)
[30] = molecular target: TBK1 (human) (UniProt Q9UHD2)
[31] = molecular target: NEK6 (human) (UniProt Q9HC98)
[32] = molecular target: MYLK (human) (UniProt Q15746)
Chain of MYLK (human) (Q15746 whole entry, looked up): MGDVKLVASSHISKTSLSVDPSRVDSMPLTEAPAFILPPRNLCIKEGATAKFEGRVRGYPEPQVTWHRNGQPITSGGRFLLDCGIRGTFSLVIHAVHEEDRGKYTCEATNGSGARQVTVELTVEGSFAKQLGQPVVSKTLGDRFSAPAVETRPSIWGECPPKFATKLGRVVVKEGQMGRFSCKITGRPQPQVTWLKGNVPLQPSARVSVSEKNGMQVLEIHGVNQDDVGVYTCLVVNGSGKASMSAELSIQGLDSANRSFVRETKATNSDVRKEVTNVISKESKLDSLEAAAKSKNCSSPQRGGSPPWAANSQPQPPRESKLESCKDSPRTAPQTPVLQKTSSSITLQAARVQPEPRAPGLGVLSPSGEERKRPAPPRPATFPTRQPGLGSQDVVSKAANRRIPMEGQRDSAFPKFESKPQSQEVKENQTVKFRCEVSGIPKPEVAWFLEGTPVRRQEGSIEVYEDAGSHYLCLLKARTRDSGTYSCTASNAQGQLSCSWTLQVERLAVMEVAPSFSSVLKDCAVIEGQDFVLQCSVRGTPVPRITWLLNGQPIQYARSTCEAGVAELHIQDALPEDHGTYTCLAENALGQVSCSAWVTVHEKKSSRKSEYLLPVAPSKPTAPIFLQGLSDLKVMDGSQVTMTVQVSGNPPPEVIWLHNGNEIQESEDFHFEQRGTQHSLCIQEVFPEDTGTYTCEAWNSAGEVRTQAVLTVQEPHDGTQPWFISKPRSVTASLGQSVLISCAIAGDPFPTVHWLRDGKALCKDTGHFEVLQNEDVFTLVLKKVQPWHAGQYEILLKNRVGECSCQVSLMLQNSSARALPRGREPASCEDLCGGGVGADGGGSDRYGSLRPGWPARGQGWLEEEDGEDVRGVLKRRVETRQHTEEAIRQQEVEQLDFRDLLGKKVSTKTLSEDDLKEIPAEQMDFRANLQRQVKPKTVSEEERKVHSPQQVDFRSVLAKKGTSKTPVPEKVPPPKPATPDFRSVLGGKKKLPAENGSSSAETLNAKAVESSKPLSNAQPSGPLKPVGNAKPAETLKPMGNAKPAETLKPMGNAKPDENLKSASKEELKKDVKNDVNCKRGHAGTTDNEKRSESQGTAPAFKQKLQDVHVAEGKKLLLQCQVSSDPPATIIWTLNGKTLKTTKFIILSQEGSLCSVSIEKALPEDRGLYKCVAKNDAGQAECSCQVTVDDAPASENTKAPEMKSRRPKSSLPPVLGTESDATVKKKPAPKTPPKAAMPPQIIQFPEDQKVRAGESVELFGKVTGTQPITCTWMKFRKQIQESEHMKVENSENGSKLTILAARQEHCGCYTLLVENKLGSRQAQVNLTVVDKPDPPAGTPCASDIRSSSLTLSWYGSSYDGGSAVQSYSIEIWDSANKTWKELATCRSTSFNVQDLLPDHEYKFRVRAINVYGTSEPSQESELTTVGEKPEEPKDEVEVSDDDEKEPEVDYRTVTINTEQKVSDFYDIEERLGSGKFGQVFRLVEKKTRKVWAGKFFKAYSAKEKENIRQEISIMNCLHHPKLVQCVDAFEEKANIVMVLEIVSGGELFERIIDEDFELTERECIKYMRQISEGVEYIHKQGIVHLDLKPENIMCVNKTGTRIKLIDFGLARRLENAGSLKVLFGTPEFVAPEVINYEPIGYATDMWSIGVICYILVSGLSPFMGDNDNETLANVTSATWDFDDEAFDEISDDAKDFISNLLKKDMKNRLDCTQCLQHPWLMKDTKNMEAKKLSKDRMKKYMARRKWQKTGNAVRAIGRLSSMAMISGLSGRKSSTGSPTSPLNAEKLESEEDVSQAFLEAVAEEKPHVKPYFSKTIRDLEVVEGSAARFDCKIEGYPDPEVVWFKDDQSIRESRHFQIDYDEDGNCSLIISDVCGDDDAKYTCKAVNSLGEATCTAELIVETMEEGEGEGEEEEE

[33] = molecular target: MAPKAPK2 (human) (UniProt P49137)
[34] = molecular target: CHEK1 (human) (UniProt O14757)
[35] = molecular target: MAP2K1 (human) (UniProt Q02750)
[36] = molecular target: SRPK1 (human) (UniProt Q96SB4)

Chain of MARK4 (human) (Q96L34 whole entry, looked up): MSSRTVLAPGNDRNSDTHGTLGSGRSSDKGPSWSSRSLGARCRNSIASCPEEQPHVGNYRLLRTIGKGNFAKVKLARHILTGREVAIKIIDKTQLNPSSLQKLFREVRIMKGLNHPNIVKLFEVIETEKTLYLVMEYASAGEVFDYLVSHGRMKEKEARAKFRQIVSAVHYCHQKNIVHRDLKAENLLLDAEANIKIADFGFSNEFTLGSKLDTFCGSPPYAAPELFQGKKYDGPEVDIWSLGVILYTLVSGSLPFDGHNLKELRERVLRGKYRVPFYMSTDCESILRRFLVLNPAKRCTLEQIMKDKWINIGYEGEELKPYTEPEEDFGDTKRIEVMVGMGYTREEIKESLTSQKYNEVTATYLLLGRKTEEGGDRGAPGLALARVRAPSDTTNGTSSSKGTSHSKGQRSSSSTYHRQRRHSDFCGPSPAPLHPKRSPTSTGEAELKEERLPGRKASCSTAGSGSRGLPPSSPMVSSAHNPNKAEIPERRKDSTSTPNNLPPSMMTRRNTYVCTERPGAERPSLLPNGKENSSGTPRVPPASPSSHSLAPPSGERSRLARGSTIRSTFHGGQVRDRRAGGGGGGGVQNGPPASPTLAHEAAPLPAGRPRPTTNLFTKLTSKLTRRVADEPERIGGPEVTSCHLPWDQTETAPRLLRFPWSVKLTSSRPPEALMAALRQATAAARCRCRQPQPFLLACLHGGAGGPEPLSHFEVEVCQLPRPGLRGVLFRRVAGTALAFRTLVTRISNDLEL
Chain of DAPK1 (human) (P53355 whole entry, looked up): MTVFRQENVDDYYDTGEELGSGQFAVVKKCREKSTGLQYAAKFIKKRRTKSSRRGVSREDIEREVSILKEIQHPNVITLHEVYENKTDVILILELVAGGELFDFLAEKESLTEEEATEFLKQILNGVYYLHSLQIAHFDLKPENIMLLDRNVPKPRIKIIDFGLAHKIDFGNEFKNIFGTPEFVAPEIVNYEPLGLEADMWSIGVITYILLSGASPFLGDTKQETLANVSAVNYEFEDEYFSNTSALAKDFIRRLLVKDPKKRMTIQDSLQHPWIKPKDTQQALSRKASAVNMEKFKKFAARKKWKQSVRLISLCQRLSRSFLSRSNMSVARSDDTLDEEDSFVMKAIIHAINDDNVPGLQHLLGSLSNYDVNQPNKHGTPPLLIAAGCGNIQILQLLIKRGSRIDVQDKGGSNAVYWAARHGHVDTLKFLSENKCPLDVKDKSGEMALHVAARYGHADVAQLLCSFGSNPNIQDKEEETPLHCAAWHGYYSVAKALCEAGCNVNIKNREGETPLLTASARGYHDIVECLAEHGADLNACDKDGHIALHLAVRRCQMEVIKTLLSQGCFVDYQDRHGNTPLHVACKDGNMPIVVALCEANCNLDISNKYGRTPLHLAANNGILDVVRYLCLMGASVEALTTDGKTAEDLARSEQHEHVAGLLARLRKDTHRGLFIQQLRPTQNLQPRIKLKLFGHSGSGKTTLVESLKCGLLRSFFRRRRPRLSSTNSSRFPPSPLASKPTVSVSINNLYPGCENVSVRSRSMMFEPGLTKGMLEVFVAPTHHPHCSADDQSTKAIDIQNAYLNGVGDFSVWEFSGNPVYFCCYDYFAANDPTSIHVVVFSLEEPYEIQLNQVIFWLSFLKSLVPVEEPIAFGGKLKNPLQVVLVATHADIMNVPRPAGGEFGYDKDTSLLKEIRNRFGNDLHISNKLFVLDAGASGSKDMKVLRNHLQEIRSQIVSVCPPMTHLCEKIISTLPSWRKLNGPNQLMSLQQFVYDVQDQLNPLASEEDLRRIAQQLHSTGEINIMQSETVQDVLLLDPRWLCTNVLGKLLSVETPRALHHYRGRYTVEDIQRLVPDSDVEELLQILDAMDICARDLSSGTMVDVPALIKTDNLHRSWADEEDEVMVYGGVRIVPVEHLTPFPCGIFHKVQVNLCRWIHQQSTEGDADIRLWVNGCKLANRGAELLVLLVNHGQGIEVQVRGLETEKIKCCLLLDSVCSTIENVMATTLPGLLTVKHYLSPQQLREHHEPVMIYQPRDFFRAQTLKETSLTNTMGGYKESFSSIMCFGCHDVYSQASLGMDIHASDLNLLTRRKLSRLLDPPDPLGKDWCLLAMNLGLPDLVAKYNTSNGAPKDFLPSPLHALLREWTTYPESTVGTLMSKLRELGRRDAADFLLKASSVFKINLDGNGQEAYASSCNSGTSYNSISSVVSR

Q: What does the source list for `NC(=O)c1cc(-c2ccnc(NC3CCCCC3)c2)nc(N2CCNCC2)c1`?
A: residual activity ([1]; compound 0.1 µM): 87%; residual activity ([1]; compound 1.0 µM): 46%; residual activity ([1]; compound 10.0 µM): 10%; residual activity ([2]; compound 0.1 µM): 66%; residual activity ([2]; compound 1.0 µM): 30%; residual activity ([2]; compound 10.0 µM): 11%; residual activity ([3]; compound 0.1 µM): 103%; residual activity ([3]; compound 1.0 µM): 110%; residual activity ([3]; compound 10.0 µM): 98%; residual activity ([4]; compound 0.1 µM): 102%; residual activity ([4]; compound 1.0 µM): 93%; residual activity ([4]; compound 10.0 µM): 40%; residual activity ([5]; compound 0.1 µM): 111%; residual activity ([5]; compound 1.0 µM): 87%; residual activity ([5]; compound 10.0 µM): 79%; residual activity ([6]; compound 0.1 µM): 96%; residual activity ([6]; compound 1.0 µM): 66%; residual activity ([6]; compound 10.0 µM): 19%; residual activity ([7]; compound 0.1 µM): 91%; residual activity ([7]; compound 10.0 µM): 35%; residual activity ([8]; compound 0.1 µM): 90%; residual activity ([8]; compound 1.0 µM): 78%; residual activity ([8]; compound 10.0 µM): 48%; residual activity ([9]; compound 0.1 µM): 85%; residual activity ([9]; compound 1.0 µM): 50%; residual activity ([9]; compound 10.0 µM): 23%; residual activity ([10]; compound 0.1 µM): 76%; residual activity ([10]; compound 1.0 µM): 31%; residual activity ([10]; compound 10.0 µM): 6%; residual activity ([11]; compound 0.1 µM): 92%; residual activity ([11]; compound 1.0 µM): 40%; residual activity ([11]; compound 10.0 µM): 15%; residual activity ([12]; compound 0.1 µM): 97%; residual activity ([12]; compound 1.0 µM): 109%; residual activity ([12]; compound 10.0 µM): 79%; residual activity ([13]; compound 0.1 µM): 114%; residual activity ([13]; compound 1.0 µM): 98%; residual activity ([13]; compound 10.0 µM): 65%; residual activity ([14]; compound 0.1 µM): 103%; residual activity ([14]; compound 10.0 µM): 91%; residual activity ([15]; compound 0.1 µM): 107%; residual activity ([15]; compound 1.0 µM): 94%; residual activity ([15]; compound 10.0 µM): 76%; residual activity ([16]; compound 0.1 µM): 96%; residual activity ([16]; compound 1.0 µM): 111%; residual activity ([16]; compound 10.0 µM): 99%; residual activity ([17]; compound 0.1 µM): 92%; residual activity ([17]; compound 1.0 µM): 96%; residual activity ([17]; compound 10.0 µM): 94%; residual activity ([18]; compound 0.1 µM): 106%; residual activity ([18]; compound 1.0 µM): 123%; residual activity ([18]; compound 10.0 µM): 115%; residual activity ([19]; compound 0.1 µM): 105%; residual activity ([19]; compound 1.0 µM): 93%; residual activity ([19]; compound 10.0 µM): 57%; residual activity ([20]; compound 0.1 µM): 99%; residual activity ([20]; compound 1.0 µM): 99%; residual activity ([20]; compound 10.0 µM): 81%; residual activity ([21]; compound 0.1 µM): 100%; residual activity ([21]; compound 1.0 µM): 107%; residual activity ([21]; compound 10.0 µM): 97%; residual activity ([22]; compound 0.1 µM): 92%; residual activity ([22]; compound 1.0 µM): 120%; residual activity ([22]; compound 10.0 µM): 79%; residual activity ([23]; compound 0.1 µM): 107%; residual activity ([23]; compound 1.0 µM): 110%; residual activity ([23]; compound 10.0 µM): 65%; residual activity ([24]; compound 0.1 µM): 41%; residual activity ([24]; compound 1.0 µM): 82%; residual activity ([24]; compound 10.0 µM): 44%; residual activity ([25]; compound 1.0 µM): 69%; residual activity ([25]; compound 10.0 µM): 103%; residual activity ([26]; compound 0.1 µM): 105%; residual activity ([26]; compound 1.0 µM): 111%; residual activity ([26]; compound 10.0 µM): 87%; residual activity ([27]; compound 0.1 µM): 97%; residual activity ([27]; compound 1.0 µM): 58%; residual activity ([27]; compound 10.0 µM): 42%; residual activity ([28]; compound 0.1 µM): 98%; residual activity ([28]; compound 1.0 µM): 84%; residual activity ([28]; compound 10.0 µM): 21%; residual activity ([29]; compound 0.1 µM): 99%; residual activity ([29]; compound 1.0 µM): 102%; residual activity ([29]; compound 10.0 µM): 99%; residual activity ([30]; compound 1.0 µM): 88%; residual activity ([30]; compound 10.0 µM): 30%; residual activity ([31]; compound 0.1 µM): 86%; residual activity ([31]; compound 1.0 µM): 87%; residual activity ([31]; compound 10.0 µM): 42%; residual activity ([32]; compound 0.1 µM): 85%; residual activity ([32]; compound 1.0 µM): 40%; residual activity ([32]; compound 10.0 µM): 10%; residual activity ([33]; compound 0.1 µM): 99%; residual activity ([33]; compound 1.0 µM): 72%; residual activity ([33]; compound 10.0 µM): 22%; residual activity ([34]; compound 1.0 µM): 100%; residual activity ([34]; compound 10.0 µM): 70%; residual activity ([35]; compound 0.1 µM): 86%; residual activity ([35]; compound 1.0 µM): 77%; residual activity ([35]; compound 10.0 µM): 49%; residual activity ([36]; compound 0.1 µM): 105%; residual activity ([36]; compound 1.0 µM): 86%; residual activity ([36]; compound 10.0 µM): 46%
